Assay results from patent US20080026996A1, “Selective Vpac2 Receptor Reptide Agonists” (ELI LILLY AND COMPANY, priority 2004, published 2008).
Where two headings read alike, the source gives them in different places. Where a SMILES comes first, the peptide text is derived from it. Where no end group is shown, it is not given here. [ ]: non-standard residue; d: D form. The star is where a group is joined. Hexanoyl = CCCCCC(=O)*; Aib = CC(C)(N)C(=O)O

Assays:
rat VPAC2 receptor = biological target: T1, rat VPAC2 receptor (Rattus norvegicus, UniProt P35000); assay: Competition binding on recombinant rat VPAC2 receptor expressed in CHO cells, 125I-RO 25-1553 tracer; design: expressed in transfected cells; host or cells: CHO cells, crude membranes; details: for VPAC1/VPAC2 ratio between the IC50 values (index of selectivity): rat receptors, binding
T1 sequence (P35000 23-437): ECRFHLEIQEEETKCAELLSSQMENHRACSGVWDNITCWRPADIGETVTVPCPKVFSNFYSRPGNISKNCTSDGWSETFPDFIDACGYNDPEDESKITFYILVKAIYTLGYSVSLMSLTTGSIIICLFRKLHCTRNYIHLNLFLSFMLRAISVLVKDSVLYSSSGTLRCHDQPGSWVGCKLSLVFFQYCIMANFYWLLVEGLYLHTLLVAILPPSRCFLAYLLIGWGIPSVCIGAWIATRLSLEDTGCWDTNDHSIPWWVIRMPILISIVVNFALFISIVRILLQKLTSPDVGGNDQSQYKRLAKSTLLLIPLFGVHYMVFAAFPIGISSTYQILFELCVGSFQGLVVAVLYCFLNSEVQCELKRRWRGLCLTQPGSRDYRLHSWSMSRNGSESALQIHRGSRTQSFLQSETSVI
Description: The peptide samples are stored frozen and thawed prior to the assay. […] All peptide sample and reference compound dilutions are performed in PBS. Peptides solutions are kept in the cold room for four days. Stock solutions are stored at −80° C. New dilution curves are prepared every week.
The selectivity of the VPAC2 receptor peptide agonists of the present invention are tested on the rat VPAC1 and VPAC2 receptors recombinantly expressed in CHO cells.
Each assay is done in duplicate and performed on two different membrane preparations.

rat PAC1 receptor = biological target: T2, rat PAC1 receptor (Rattus norvegicus, UniProt P32215); assay: Binding on recombinant rat PAC1 receptor expressed in CHO cells; details: maximal concentration tested 10 μM peptide
T2 construct: expressed in transfected cells; host or cells: CHO cells, crude membranes
T2 sequence (P32215 20-523): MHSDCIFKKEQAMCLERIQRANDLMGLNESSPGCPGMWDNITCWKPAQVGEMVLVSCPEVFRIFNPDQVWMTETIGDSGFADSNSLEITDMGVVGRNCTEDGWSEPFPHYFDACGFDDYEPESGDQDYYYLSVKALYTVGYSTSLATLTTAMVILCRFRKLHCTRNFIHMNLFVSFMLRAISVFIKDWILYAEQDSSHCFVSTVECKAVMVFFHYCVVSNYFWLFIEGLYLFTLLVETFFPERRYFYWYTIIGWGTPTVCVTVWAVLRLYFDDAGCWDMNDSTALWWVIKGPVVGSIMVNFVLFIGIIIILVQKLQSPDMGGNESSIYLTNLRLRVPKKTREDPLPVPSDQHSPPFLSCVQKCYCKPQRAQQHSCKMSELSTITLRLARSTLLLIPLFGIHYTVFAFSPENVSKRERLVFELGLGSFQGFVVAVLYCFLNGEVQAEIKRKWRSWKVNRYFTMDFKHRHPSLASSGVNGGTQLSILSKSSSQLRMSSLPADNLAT
Description: All studies are performed on crude membranes prepared from three different cell cultures expressing the different recombinant receptors, using methodology that is known in the literature. Duplicate values are obtained for each assay.

[1] = Pharmacokinetic assay: active peptide levels in rat plasma after IV injection
Description: An IVGTT with glucose is given immediately after T=0 to 6 animals per condition. Samples are taken at 0, 2, 4, 6, and 10 minutes after injection.
For cell handling, Plate 50,000 cells/well and keep in culture over night. Wash cell twice in PBS and add 50 μl/well stimulation medium consisting of PBS+1.2 MgCl2, 1.3 CaCl2, 2 glucose and 0.5 IBMX. Incubate 15 minutes and add 50 μl/well of the plasma samples (see layout below). Incubate 30 minutes, remove the supernatant and proceed as normal with the DiscoveRx assay. Prepare plates in duplicate. Protease and peptidase inhibitor are present in all plasma samples.

human VPAC2 = biological target: T3, human VPAC2 (Homo sapiens, UniProt P41587); assay: DiscoveRx cAMP in vitro potency, CHO-S cell line stably expressing human VPAC2 receptor; assay type: cell-based; details: cAMP generation; mean of two independent runs
T3 construct: expressed in transfected cells
T3 sequence (P41587 24-438): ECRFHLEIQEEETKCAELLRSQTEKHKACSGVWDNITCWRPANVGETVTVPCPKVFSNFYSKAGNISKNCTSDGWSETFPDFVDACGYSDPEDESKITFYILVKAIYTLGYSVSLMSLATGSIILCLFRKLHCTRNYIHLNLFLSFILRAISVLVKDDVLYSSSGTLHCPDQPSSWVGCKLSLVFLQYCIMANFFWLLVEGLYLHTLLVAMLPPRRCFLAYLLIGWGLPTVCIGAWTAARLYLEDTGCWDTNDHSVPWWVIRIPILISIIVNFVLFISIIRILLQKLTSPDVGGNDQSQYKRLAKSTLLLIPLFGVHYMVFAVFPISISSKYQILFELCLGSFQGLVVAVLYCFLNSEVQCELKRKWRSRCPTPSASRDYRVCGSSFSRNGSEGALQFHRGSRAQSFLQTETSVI
Description: Also, the cells are washed twice. The cells are incubated in assay buffer plus IBMX for 15 minutes at room temperature. […] The stimuli are present for 30 minutes. Then, the assay buffer is gently removed. […] At day 3, the assay described above for the VPAC2 receptor cell line is performed.

rat VPAC1 receptor = biological target: T4, rat VPAC1 receptor (Rattus norvegicus, UniProt P30083); assay: DiscoveRx in vitro potency, CHO-PO cells transiently transfected with rat VPAC 1 receptor DNA; assay type: cell-based; design: expressed in transfected cells; host or cells: CHO-PO, transient
T4 sequence (P30083 31-459): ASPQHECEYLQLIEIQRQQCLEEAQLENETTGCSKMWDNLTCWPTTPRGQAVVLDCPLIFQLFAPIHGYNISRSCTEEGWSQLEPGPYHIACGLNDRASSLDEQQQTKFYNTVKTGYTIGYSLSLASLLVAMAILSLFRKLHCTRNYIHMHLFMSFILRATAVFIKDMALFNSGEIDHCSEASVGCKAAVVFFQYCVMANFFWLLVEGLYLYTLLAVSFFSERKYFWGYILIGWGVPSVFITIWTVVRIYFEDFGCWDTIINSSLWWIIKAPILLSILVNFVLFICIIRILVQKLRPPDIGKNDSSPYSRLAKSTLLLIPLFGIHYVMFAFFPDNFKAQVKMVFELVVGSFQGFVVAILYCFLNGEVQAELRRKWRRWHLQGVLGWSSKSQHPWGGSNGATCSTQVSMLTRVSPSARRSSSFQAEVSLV
Description: Also, the cells are washed twice. […] The stimuli are present for 30 minutes. Then, the assay buffer is gently removed.

Normal Wistar rats = assay: Delayed IVGTT; assay type: in vivo, rat; details: 10 μg/kg iv, glucose 30 minutes later
Description: Delayed IVGTT: Perform IVGTT as described above, making the following changes. After the initial blood sample, compound or vehicle is injected i.v. Glucose is injected i.v. 30 minutes later in a separate injection. Blood samples are taken immediately prior to administration of the compound, at 15 minutes after administration of the compound, and at 30 minutes after administration of the compound. The sample at 30 minutes after administration of the compound is taken immediately prior to glucose administration. Blood samples are drawn 2, 4, 6, 10, and 30 minutes after giving glucose (i.e. 32, 34, 36, 40 and 60 minutes after compound administration). The blood samples at 15 and 60 minutes are not essential to the study and not always taken. Aprotinin is added to the blood sample (250 kIU/ml blood). The serum is then analyzed for glucose and insulin using standard methodologies.
The assay uses a formulated and calibrated peptide stock in PBS. Normally, this stock is a prediluted 100 μM stock. However, a more concentrated stock with approximately 1 mg agonist per mL is used. The specific concentration is always known.

[2] = IC50 of tracer inhibition, 125I-RO 25-1553, with standard error, read-out: RAT VPAC2 IC50 (log M) (converted)
[3] = Wistar, rat, plasma, iv, 10 ug/kg

Compound | IC50 (rat VPAC2 receptor; [2]) [nM] | VPAC1/VPAC2 ratio between the IC50 values (index of selectivity) (rat VPAC2 receptor) | binding (tracer displacement) (rat PAC1 receptor) | AUC(0-t) [1, 3] [nM·h] | Cmax [1, 3] [nM] | half-life [1, 3] [min] | Exposure (10 μg/kg); clearance in μg/(min * nM * kg) ([1]; rat plasma, 10 μg/kg i.v.) [µg/min/nM/kg] | Exposure (10 μg/kg, Vdist in μg/(nM * kg)) ([1]; rat plasma, 10 μg/kg i.v.) [µg/nM/kg] | IC50 (rat VPAC2 receptor) [nM] | EC50 (human VPAC2) [nM] | EC50 (rat VPAC1 receptor) [nM] | Effects on glucose (Normal Wistar rats) | Effects on insulin, AUC(0-10 min) (Normal Wistar rats)
CCCCCC(=O)N[C@@H](Cc1c[nH]cn1)C(=O)N[C@@H](CO)C(=O)N[C@@H](CC(=O)O)C(=O)N[C@@H](C)C(=O)N[C@H](C(=O)N[C@@H](Cc1ccccc1)C(=O)N[C@H](C(=O)N[C@@H](CC(=O)O)C(=O)N[C@@H](CC(N)=O)C(=O)N[C@@H](Cc1ccc(O)cc1)C(=O)N[C@H](C(=O)N[C@@H](CCCNC(=N)N)C(=O)N[C@@H](CC(C)C)C(=O)N[C@@H](CCCNC(=N)N)C(=O)NC(C)(C)C(=O)N[C@@H](CCC(N)=O)C(=O)N[C@@H](CC(C)C)C(=O)N[C@@H](C)C(=O)N[C@@H](C)C(=O)NC(C)(C)C(=O)N[C@@H](CCCCN)C(=O)N[C@@H](Cc1ccc(O)cc1)C(=O)N[C@@H](CC(C)C)C(=O)N[C@@H](CCC(N)=O)C(=O)N[C@@H](CO)C(=O)N[C@H](C(=O)N[C@@H](CCCCN)C(=O)N[C@@H](CC(N)=O)C(=O)N[C@@H](CCCCN)C(=O)NCC(=O)NCC(=O)N1CCC[C@H]1C(=O)N[C@@H](CO)C(=O)N[C@@H](CO)C(=O)NCC(=O)N[C@@H](C)C(=O)N1CCC[C@H]1C(=O)N1CCC[C@H]1C(=O)N1CCC[C@H]1C(=O)N[C@@H](CO)C(=O)O)[C@@H](C)CC)[C@@H](C)O)[C@@H](C)O)C(C)C [Agonist P292] (Hexanoyl-HSDAVFTDNYTRLR[Aib]QLAA[Aib]KYLQSIKNKGGPSSGAPPPS-OH; C-terminus assumed) | 0.759 | 269 | – | – | – | – | – | – | – | – | – | – | –
H-MHSDAVFTDNYTRLRKQVAAKKYLQSIKNKRYGGPSSGAPPPS [Agonist P104] | – | 977 | incomplete tracer displacement | 0.355 | 3.19 | 2.35 | 0.87 | 2.64 | 1.8 | – | – | – | –
Hexanoyl-HSDAVFTDNYTRLR[Aib]QVAA[Aib]KYLQSIKNKRYGGPSSGAPPPS [Agonist P261] | 0.355 | 363 | – | – | – | – | – | – | – | – | – | – | –
Hexanoyl-HSDAVFTDNYTRLLAKLALQKYLQSIKNKRYGGPSSGAPPPS [Agonist P119] | 0.618 | 47 | incomplete tracer displacement | – | – | – | – | – | – | 0.34 | 0.07 | – | –
Hexanoyl-HSDAVFTDNYTRLRKQVAAKKYLQSIKNKRYGGPSSGAPPPS [Agonist P31] | 0.385 | 546 | incomplete tracer displacement | – | – | – | – | – | – | 0.11 | 0.44 | None | +91% AUC(0-10 min)
